In paper PMC7203153, “Rational identification and characterisation of peptide ligands for targeting polysialic acid” (Scientific Reports, 2020):
Marks after values point to notes of the source that are not given here. Where a SMILES comes first, the peptide text is derived from it.

Assay: Peptide microarray affinity screening against α-2,8-PSA (colominic acid)
Format: binding, Escherichia coli
Details: 10 μM CA, pH 7.4
Experimental: (§1) Peptide library synthesis, microarray preparation, and microarray screening were performed as described previously[25] with the following specifications. Siglec-related sequences were N-terminally acetylated to match the charge of the corresponding protein fragment. All peptides were printed in triplicate (60 nL spots), and each initial affinity screening was carried out at least three times. Screening was conducted with 10 μM colominic acid (CA; 5 mL per microarray), the Escherichia coli homolog of α-2,8-PSA identical in structure to human-derived PSA[67], and with antibody-based chemiluminescent detection of CA. For selectivity screening, microarrays were challenged with 10 μM CA with 0, 0.1, 1, and 10 μM α-2,8/9-PSA in separate conditions (5 mL total volume each), where molar concentrations were based on molecular weight estimation of synthesized 2,8/9-PSA (details on α-2,8/9-PSA production, purification, and analysis are provided in Supplementary Information). Selectivity screening with monomeric sialic acid was conducted with mass and molar equivalents of N-acetylneuraminic acid (Rose Scientific, Ltd.) along with 10 μM CA (5 mL total volume each). The mass equivalent amount of sialic acid (specifically, 970 μM sialic acid for a given volume of 10 μM CA) was calculated for CA of an average degree of polymerization of 100. For study of pH-dependent binding, affinity screening with CA was performed using PBS buffers of pH 6.0, 7.0, 7.4, and 8.0 (10 mM phosphate, 100 mM NaCl). The impact of NaCl on peptide binding was assessed at pH 7.4 with 0, 100, and 200 mM NaCl.
Microarray image and data analysis was performed as described. […] Of the triplicate experiments used to generate mean microarray affinity intensities in standard conditions (within each of which 762 peptides were represented in triplicate), 225 out of 762 values in one of these three experiments were derived from raw data previously reported, but were alternatively analysed as stated. Peptide isoelectric points were calculated with the EMBOSS iep program.

Compound | change in microarray binding with 200 mM vs 100 mM NaCl
CC(=O)N[C@@H](CCCCN)C(=O)N[C@@H](CC(=O)O)C(=O)N1CCC[C@H]1C(=O)N[C@@H](CO)C(=O)N[C@@H](Cc1ccc(O)cc1)C(=O)N[C@@H](CO)C(=O)N[C@@H](CC(C)C)C(=O)N[C@@H](CCC(N)=O)C(=O)N[C@H](C(=O)N[C@@H](CCC(N)=O)C(=O)N[C@@H](CCCNC(=N)N)C(=O)N[C@@H](CCC(N)=O)C(=O)N[C@H](C(=O)N1CCC[C@H]1C(=O)N[C@H](C(N)=O)C(C)C)C(C)C)C(C)C [I-P2] (Ac-KDPSYSLQVQRQVPV-NH2) | did not display any change in binding
CC(=O)N[C@@H](CCC(=O)O)C(=O)N[C@@H](Cc1c[nH]cn1)C(=O)NCC(=O)NCC(=O)NCC(=O)N[C@@H](CC(C)C)C(=O)NCC(=O)N[C@@H](CC(C)C)C(=O)NCC(=O)N[C@@H](C)C(=O)N[C@@H](C)C(=O)N[C@@H](CC(C)C)C(=O)NCC(=O)N[C@@H](C)C(=O)NCC(N)=O [I-P264] (Ac-EHGGGLGLGAALGAG-NH2) | did not display any change in binding

Assay: Competitive microarray selectivity screening with α-2,8/9-PSA
Format: binding, Escherichia coli
Details: 10% competing α-2,8/9-PSA
Experimental: Competitive microarray screening with α-2,8/9-PSA was conducted in order to assess selective binding of peptides to α-2,8-PSA. The definition of percent selectivity at 10% competing glycan was applied to enable selectivity comparisons amongst a larger set of peptides[25] […] However, the use of an isomeric polymer is a more stringent assessment of selectivity; here, selective binding is guided by three-dimensional conformation and not additionally by differences in functional groups.
as §1, with “NaCl. […]” for “NaCl.”

Compound | selectivity mark in Table 1
CC(=O)N[C@@H](CC(N)=O)C(=O)N[C@@H](CCCNC(=N)N)C(=O)N[C@H](C(=O)N[C@H](C(=O)N[C@@H](CC(C)C)C(=O)N[C@@H](CCCNC(=N)N)C(=O)N[C@@H](CC(N)=O)C(=O)N[C@@H](CC(C)C)C(=O)NCC(=O)N[C@@H](CC(N)=O)C(=O)NCC(=O)N[C@H](C(=O)N[C@@H](CO)C(=O)N[C@@H](CC(C)C)C(=O)N1CCC[C@H]1C(N)=O)[C@@H](C)O)C(C)C)[C@@H](C)O [II-P336] (Ac-NRTVLRNLGNGTSLP-NH2) | II-P336* (Peptides with selectivity >80%)
AISSPLLKNPFRGGGS [II-P214, phage display screening peptide with W8K mutation] | II-P214* (Peptides with selectivity >80%)

Same assay, conditions: binding to 10 μM α-2,8-PSA (CA) with 10% competing α-2,8/9-PSA; ± SD of triplicate intra-assay measurements; SD

Compound | % selectivity [%]
AALSPRRTRPSTSHF [I-P85] | 59 ± 5
AISSPLLRNPFRGGGS [II-P213, phage display screening peptide with W8R mutation] | 66 ± 9
FRVKICRKEARKRAA [I-P278] | 43 ± 8
FSRKGVSAQRTVRLR [I-P103] | 55 ± 11
GGKGGGKGGGKGGGK [I-P380, de novo peptide composed of lysine and glycine residues] | 56 ± 7
GRTSAKTGAPVATNN [I-P344, Siglec-11-derived peptide with P5A mutation] | 85 ± 8
GRTSPKAGAPVATNN [I-P346, Siglec-11-derived peptide with T7A mutation] | 91 ± 15
GSGSGTDFTLKISRV [II-P35, peptide designed from mAb735] | 53 ± 6
KGGGKGGGKGGGKGG [I-P379, de novo peptide composed of lysine and glycine residues] | 61 ± 7
KGKGKGKGKGKGKGK [I-P378, de novo designed peptide with alternating Lys and Gly residues] | 60 ± 9
KIHTGQPLRGPGFGL [I-P323] | 86 ± 8
LKVTALTKKPDVYIP [I-P62] | 67 ± 17
LSNAFFLKVTALTKK [I-P59] | 52 ± 10
LSPRRTRPSTSHFSV [I-P86] | 62 ± 10
NAFFLKVTALTKKPD [I-P60] | 70 ± 18
PGSGNTKYNEKFKGK [II-P77, peptide designed from mAb735] | 49 ± 5
QELHYASLSFQGLRL [I-P307] | 80 ± 14
RKGVSAQRTVRLRVA [I-P104] | 45 ± 4
TLPAILQASGTRGGGS [II-P145, phage display screening peptide with S8A mutation] | 81 ± 16
VDFSRKGVSAQRTVR [I-P102] | 59 ± 10
VKICRKEARKRAAAE [I-P279] | 46 ± 12
VPYTFGGGTRLEIKG [II-P50, peptide designed from mAb735] | 71 ± 9
WFKGKTSPKTGAPVA [I-P333, Siglec-11-derived peptide with R5K mutation] | 59 ± 2
WFKGRTSPKTGAPVA [I-P330, Siglec-11-derived peptide] | 35 ± 1
WGPRTLGLELRGVRA [I-P143] | 37 ± 1
YSEIKIHTGQPLRGP [I-P321] | 85 ± 18
YWFKGRTSPKTGAPV [I-P23] | 43 ± 3

Assay: Fluorescence anisotropy (FA) assay of peptide–PSA binding
Design: species or system Escherichia coli
Details: FA titration; N-acetylated, C-terminally TAMRA-labelled peptide 20 nM; CA 0–1500 μM; PBS pH 7.4 (10 mM phosphate, 100 mM NaCl); 3 h, ~20 °C; four-parameter logistic fit; at least two independent experiments, at least triplicate; * = accuracy likely poor (SE > KD)
Experimental: Peptides (Table 2) were synthesized at >95% purity (confirmed with HPLC) by Biomatik (see Supplementary Information). All peptides were N-terminally acetylated and C-terminally labelled with tetramethylrhodamine dye (TAMRA). TAMRA was chosen as a label due to its pH insensitivity compared to FAM (fluorescein) and related dyes commonly used for fluorescence assays. Experiments were conducted in black 384-well plates with non-binding surface (NBS, Corning, Inc.) to minimize background binding and enhance signal-to-noise ratio in the fluorescence-based binding assay. Titrations were carried out through addition of TAMRA-labelled peptide (8 μL, final concentration 20 nM) to CA (72 μL, final concentrations 0–1500 μM) in PBS, pH 7.4 (10 mM phosphate, 100 mM NaCl), and solutions were incubated with agitation to equilibrium at room temperature (3 h, ~20 °C). Parallel and perpendicular intensities were subsequently measured at 530 nm excitation (band width 5 nm) and 580 nm emission (band width 20 nm) in fluorescence polarization mode with a Tecan Infinite M1000 Pro plate reader. Total fluorescence intensities were also measured as a control for fluorophore properties with target binding; fluorescence intensities of free peptide were determined to be approximately equivalent to intensities with peptide–CA mixtures. At higher concentrations of free CA (control with no peptide addition), attenuation of detected light differed in parallel and perpendicular planes, so respective intensities were subtracted from peptide–CA intensities prior to anisotropy calculations. […] Unique samples were screened in at least triplicate within each titration experiment, and each peptide titration was carried out at least twice. In experimental repeats, peptide locations on plates were varied to prevent location-specific effects, if any, and different combinations of peptides were assessed at once. Anisotropies were calculated from corrected parallel and perpendicular intensities, and values were fit to the four-parameter logistic binding model[70] in MATLAB. Prior to curve fitting, anisotropy values for each peptide were transformed through subtraction of minimum values to enhance comparison between peptides. The resulting translations in binding curves were identical, within error, to change in anisotropy curves obtained through subtraction of anisotropy of free labelled peptide. Bmax and KD values obtained were used in the calculation of Bmax/KD ratios for comparison to microarray intensity values, and the Pearson correlation coefficient (r) was determined.

Compound | Kd [µM]
CC(=O)N[C@@H](CCCCN)C(=O)N[C@@H](CC(=O)O)C(=O)N1CCC[C@H]1C(=O)N[C@@H](CO)C(=O)N[C@@H](Cc1ccc(O)cc1)C(=O)N[C@@H](CO)C(=O)N[C@@H](CC(C)C)C(=O)N[C@@H](CCC(N)=O)C(=O)N[C@H](C(=O)N[C@@H](CCC(N)=O)C(=O)N[C@@H](CCCNC(=N)N)C(=O)N[C@@H](CCC(N)=O)C(=O)N[C@H](C(=O)N1CCC[C@H]1C(=O)N[C@H](C(N)=O)C(C)C)C(C)C)C(C)C [I-P2] (Ac-KDPSYSLQVQRQVPV-NH2) | 405
CC[C@H](C)[C@H](NC(C)=O)C(=O)N[C@@H](Cc1ccc(O)cc1)C(=O)N1CCC[C@H]1C(=O)NCC(=O)N[C@@H](CO)C(=O)NCC(=O)N[C@@H](CC(N)=O)C(=O)N[C@H](C(=O)N[C@@H](CCCCN)C(=O)N[C@@H](Cc1ccc(O)cc1)C(=O)N[C@@H](CC(N)=O)C(=O)N[C@@H](CCC(=O)O)C(=O)N[C@@H](CCCCN)C(=O)N[C@@H](Cc1ccccc1)C(=O)N[C@@H](CCCCN)C(N)=O)[C@@H](C)O [II-P76] (Ac-IYPGSGNTKYNEKFK-NH2) | 1290
CC(=O)N[C@@H](CC(N)=O)C(=O)N[C@@H](CCCNC(=N)N)C(=O)N[C@H](C(=O)N[C@H](C(=O)N[C@@H](CC(C)C)C(=O)N[C@@H](CCCNC(=N)N)C(=O)N[C@@H](CC(N)=O)C(=O)N[C@@H](CC(C)C)C(=O)NCC(=O)N[C@@H](CC(N)=O)C(=O)NCC(=O)N[C@H](C(=O)N[C@@H](CO)C(=O)N[C@@H](CC(C)C)C(=O)N1CCC[C@H]1C(N)=O)[C@@H](C)O)C(C)C)[C@@H](C)O [II-P336] (Ac-NRTVLRNLGNGTSLP-NH2) | 577

Same assay, conditions: PSA concentration 1500 µM; ± inter-assay SD, at least two independent experiments; SD

Compound | Non-adjusted anisotropy
CC(=O)N[C@@H](CCCCN)C(=O)N[C@@H](CC(=O)O)C(=O)N1CCC[C@H]1C(=O)N[C@@H](CO)C(=O)N[C@@H](Cc1ccc(O)cc1)C(=O)N[C@@H](CO)C(=O)N[C@@H](CC(C)C)C(=O)N[C@@H](CCC(N)=O)C(=O)N[C@H](C(=O)N[C@@H](CCC(N)=O)C(=O)N[C@@H](CCCNC(=N)N)C(=O)N[C@@H](CCC(N)=O)C(=O)N[C@H](C(=O)N1CCC[C@H]1C(=O)N[C@H](C(N)=O)C(C)C)C(C)C)C(C)C [I-P2] (Ac-KDPSYSLQVQRQVPV-NH2) | 35.8 ± 11.5

Same assay, conditions: from FA curve fits, among the peptides characterised with FA

Compound | Bmax/KD ratio (binding potential)
CC(=O)N[C@@H](CC(N)=O)C(=O)N[C@@H](CCCNC(=N)N)C(=O)N[C@H](C(=O)N[C@H](C(=O)N[C@@H](CC(C)C)C(=O)N[C@@H](CCCNC(=N)N)C(=O)N[C@@H](CC(N)=O)C(=O)N[C@@H](CC(C)C)C(=O)NCC(=O)N[C@@H](CC(N)=O)C(=O)NCC(=O)N[C@H](C(=O)N[C@@H](CO)C(=O)N[C@@H](CC(C)C)C(=O)N1CCC[C@H]1C(N)=O)[C@@H](C)O)C(C)C)[C@@H](C)O [II-P336] (Ac-NRTVLRNLGNGTSLP-NH2) | highest
